These results are taken from publication PMC9604255, “Discovery of Simple Diacylhydrazine-Functionalized Cinnamic Acid Derivatives as Potential Microtubule Stabilizers” (International Journal of Molecular Sciences, 2022).

For orientation: IC50 means the concentration needed to halve the response being measured.

Read-outs that look alike come from different tables or passages of the source.

In one experiment the test system is NRK-52E cells. Nature of the experiment: MTT cytotoxicity assay, normal NRK-52E cells. The format is cell-based. To be noted: MTT assay after 48 h, normal rat kidney cell line. The text has this:
(§1) An A549 (human non-small cell lung cancer cell line) cell line was purchased from the Shanghai Cell Bank of the Chinese Academy of Sciences; PC-3 (human prostate cancer cell line) cell line was donated by the Key Laboratory of Natural Product Chemistry of the Chinese Academy of Sciences of Guizhou Province; HepG2 (human liver cancer cell line) and NRK 52E (normal rat kidney cell line) cell line was donated by Guizhou Medical University; all cell lines were kept by the laboratory.
(§2) The antiproliferative activity of target compounds against A549, PC-3, HepG2, and NRK-52E were determined by MTT assay, as described in previous articles. The assay was recorded at 490 nm by an Infinite® M200 PRO multimode microplate (Tecan, Männedorf, Switzerland).

A further experiment relates to A549 cancer cells. Nature of the experiment: MTT antiproliferative assay, A549. The format is cell-based, human. Particulars: MTT assay after 48 h.
From the text: as §1, §2
For orientation: Tetrazolium dyes change colour on reduction, which living cells bring about.

Another experiment relates to HepG2 cancer cells. Nature of the experiment: MTT antiproliferative assay, HepG2. The format is cell-based, human. Particulars: read-out: IC50 HepG2.
From the text: as §1, §2

The test system of the next experiment is PC-3 cancer cells. Nature of the experiment: MTT antiproliferative assay, PC-3. The format is cell-based, human. To be noted: MTT assay after 48 h.
From the text: as §1, §2

The next experiment concerns A549 cells. Nature of the experiment: Scratch test (cell migration). The class given is cell-based, human. To be noted: A549, 6 μM. As to the method:
According to the previous methods, A549 cells of the logarithmic growth stage were cultured in 6-well plates with two lines on the back, with each well containing a density of 1 × 10^6 cells/mL. After the cells adhered to the wall, three uniform thin lines were drawn in each well by a sterile pipette tip. Afterward, the medium containing 1% fetal bovine serum (FBS) and various concentrations of compounds were added in wells. After the different time of incubation, the cells were performed by an inverted fluorescence microscope. Then the scratch healing rate was calculated: Migration distance (n h) = edge distance (0 h) − edge distance (12 h or 24 h).

The mark [1] stands for this setting: Homo sapiens, HepG2, 48 h, MTT assay after 48 h.

In the case of `COc1cc(/C=C/C(=O)CC(=O)/C=C/c2ccc(O)c(OC)c2)ccc1O` [Curcumin, reference compound], the half-inhibitory concentration (IC50) with NRK-52E cells is greater than 300 µM; in the experiment with A549 cancer cells (Homo sapiens, A549), 69.6 ± 1.18 µM; with HepG2 cancer cells (Homo sapiens, HepG2, 48 h), 40.2 ± 1.74 µM; with PC-3 cancer cells (Homo sapiens), 73.4 ± 4.99 µM.
For `COc1cc2ncnc(Nc3ccc(F)c(Cl)c3)c2cc1OCCCN1CCOCC1` [Gefitinib, reference compound], the “Cell relative migration (migration rate)” value in the experiment with A549 cells (12 h (control 12.5%)) is recorded as 3.98%; in the experiment with A549 cells (24 h (control 24.4%)), 7.97%.
On to `O=C(/C=C/c1ccccc1)NNC(=O)/C=C/c1ccccc1` [I1], for which the IC50 in the experiment on A549 cancer cells (Homo sapiens, A549) worked out at 26.7 ± 0.43 µM; in the experiment with HepG2 cancer cells (setting [1]), 8.17 ± 0.46 µM; with PC-3 cancer cells (Homo sapiens) it was 5.95 ± 1.52 µM.
In the same order, the values of `O=C(/C=C/c1ccccc1)NNC(=O)/C=C/c1ccccc1[N+](=O)[O-]` [I2] are 7.55 ± 1.22 µM, 9.33 ± 0.95 µM and 8.08 ± 2.24 µM.
Taken in the same sequence, the figures for `O=C(/C=C/c1ccccc1)NNC(=O)/C=C/c1ccccc1Cl` [I3] were 6.48 ± 0.41 µM, 9.53 ± 1.74 µM and 7.38 ± 0.24 µM.
In the same order, the values of `O=C(/C=C/c1ccccc1)NNC(=O)/C=C/c1cccc([N+](=O)[O-])c1` [I4] are 6.05 ± 0.08 µM, 6.32 ± 1 µM and 15.8 ± 1.67 µM.
Turning to `O=C(/C=C/c1ccccc1)NNC(=O)/C=C/c1cccc(O)c1` [I5], the 50% inhibitory concentration (IC50) was found to be 50 ± 4.4 µM with NRK-52E cells; 5.09 ± 0.08 µM in the experiment with A549 cancer cells (Homo sapiens, A549); 8.69 ± 1.04 µM with HepG2 cancer cells (setting [1]); 6.68 ± 0.96 µM in the experiment with PC-3 cancer cells (Homo sapiens).
With `COc1cccc(/C=C/C(=O)NNC(=O)/C=C/c2ccccc2)c1` [I6], the IC50 is 41 ± 4.47 µM with A549 cancer cells (Homo sapiens, A549); 46.8 ± 0.14 µM in the experiment with HepG2 cancer cells (setting [1]); 160 ± 10.9 µM in the experiment on PC-3 cancer cells (Homo sapiens).
On to `O=C(/C=C/c1ccccc1)NNC(=O)/C=C/c1ccc([N+](=O)[O-])cc1` [I7], for which the IC50 in the experiment with NRK-52E cells was 21 ± 1.75 µM; in the experiment on A549 cancer cells (Homo sapiens, A549), 4.17 ± 0.93 µM; in the experiment with HepG2 cancer cells (setting [1]) it was 7.63 ± 1.75 µM; in the experiment with PC-3 cancer cells (Homo sapiens), 8.79 ± 3.19 µM.
In the case of `O=C(/C=C/c1ccccc1)NNC(=O)/C=C/c1ccc(Cl)cc1` [I8], the 50% inhibitory concentration (IC50) in the experiment with A549 cancer cells (Homo sapiens, A549) is 9.57 ± 1.92 µM; in the experiment on HepG2 cancer cells (setting [1]) it was 6.98 ± 1.3 µM; with PC-3 cancer cells (Homo sapiens) it was 63.2 ± 3.86 µM.
For the molecule `O=C(/C=C/c1ccccc1)NNC(=O)/C=C/c1ccc(F)cc1` [I9], the 50% inhibitory concentration (IC50) came out at 24.9 ± 1.54 µM in the experiment on A549 cancer cells (Homo sapiens, A549); 7.63 µM in the experiment on HepG2 cancer cells (setting [1]); 4.75 ± 0.36 µM with HepG2 cancer cells (MTT assay after 48 h); 4.68 ± 0.69 µM with PC-3 cancer cells (Homo sapiens).
`Cc1ccc(/C=C/C(=O)NNC(=O)/C=C/c2ccccc2)cc1` [I10]: the IC50 in the experiment on A549 cancer cells (Homo sapiens, A549) turned out to be 19.5 ± 4.95 µM; in the experiment with HepG2 cancer cells (setting [1]), 23.6 ± 2.67 µM; in the experiment with PC-3 cancer cells (Homo sapiens) it was 70.3 ± 9.88 µM.
Take `CC(C)c1ccc(/C=C/C(=O)NNC(=O)/C=C/c2ccccc2)cc1` [I11]: the IC50 with A549 cancer cells (Homo sapiens, A549) was 43 ± 7.3 µM; with HepG2 cancer cells (setting [1]) it was 18.6 ± 3.9 µM; with PC-3 cancer cells (Homo sapiens), 19.2 ± 6.57 µM.
In the same order, the values of `COc1ccc(/C=C/C(=O)NNC(=O)/C=C/c2ccccc2)cc1` [I12] are 10.9 ± 0.25 µM, 21.1 ± 4.07 µM and 39.4 ± 3.54 µM.
For `CCOc1ccc(/C=C/C(=O)NNC(=O)/C=C/c2ccccc2)cc1` [I13], the half-inhibitory concentration (IC50) in the experiment on A549 cancer cells (Homo sapiens, A549) worked out at 15 ± 4.9 µM; in the experiment on HepG2 cancer cells (setting [1]), 15.4 ± 0.93 µM; with PC-3 cancer cells (Homo sapiens), 22.5 ± 2.64 µM.
As to `CN(C)c1ccc(/C=C/C(=O)NNC(=O)/C=C/c2ccccc2)cc1` [I14], the IC50 stood at 7 ± 0.3 µM with NRK-52E cells; 12.8 ± 0.6 µM in the experiment on A549 cancer cells (Homo sapiens, A549); 3.42 ± 0.49 µM in the experiment with HepG2 cancer cells (setting [1]); 7.81 ± 1.69 µM in the experiment on PC-3 cancer cells (Homo sapiens).
For `COc1cc(/C=C/C(=O)NNC(=O)/C=C/c2ccccc2)ccc1O` [I15], the IC50 was 35.8 ± 0.59 µM with A549 cancer cells (Homo sapiens, A549); 31.1 ± 7.66 µM in the experiment with HepG2 cancer cells (setting [1]); greater than 300 µM with PC-3 cancer cells (Homo sapiens).
Taken in the same sequence, the figures for `O=C(/C=C/c1ccccc1)NNC(=O)/C=C/C1CC1` [I16] were 16.4 ± 0.98 µM, 78.5 ± 1.39 µM and 80.5 ± 5.43 µM.
In the case of `O=C(/C=C/c1ccccc1)NNC(=O)/C=C/c1ccco1` [I17], the concentration for half-maximal inhibition (IC50) in the experiment on A549 cancer cells (Homo sapiens, A549) is 13 ± 2.4 µM; in the experiment on HepG2 cancer cells (setting [1]), 34.5 ± 0.28 µM; with PC-3 cancer cells (Homo sapiens), 36 ± 0.7 µM.
Taken in the same sequence, the figures for `O=C(/C=C/c1ccccc1)NNC(=O)/C=C/c1cccs1` [I18] were 13.8 ± 0.29 µM, 21.1 ± 3.76 µM and 15.9 ± 1.14 µM.
Regarding `Cc1ncsc1/C=C/C(=O)NNC(=O)/C=C/c1ccccc1` [I19], the IC50 amounted to 26.6 ± 5.08 µM in the experiment with A549 cancer cells (Homo sapiens, A549); 89.3 ± 8.89 µM in the experiment on HepG2 cancer cells (setting [1]); 96.4 ± 8.36 µM in the experiment with PC-3 cancer cells (Homo sapiens).
In the same order, the values of `O=C(/C=C/c1ccccc1)NNC(=O)/C=C/C1CCCCC1` [I20] are 16.3 ± 3.25 µM, greater than 300 µM and 21.8 ± 3.15 µM.
In the same order, the values of `O=C(/C=C/c1ccccc1)NNC(=O)/C=C/C1CC=CCC1` (stereo not shown) [I21] are 8.27 ± 0.8 µM, 20.4 ± 0.86 µM and 21.6 ± 0.89 µM.
In the case of `O=C(/C=C/c1ccccc1)NNC(=O)/C=C/c1cccnc1` [I22], the half-inhibitory concentration (IC50) was determined as 60.2 ± 2.37 µM in the experiment with A549 cancer cells (Homo sapiens, A549); 43.3 ± 1.1 µM with HepG2 cancer cells (setting [1]); 159 ± 5.88 µM in the experiment on PC-3 cancer cells (Homo sapiens).
Taken in the same sequence, the figures for `COc1ccc(/C=C/C(=O)NNC(=O)/C=C/c2ccc([N+](=O)[O-])cc2)cc1` [I24, (E)-3-(4-methoxyphenyl)-N'-((E)-3-(4-nitrophenyl)acryloyl)acrylohydrazide] were 5.17 ± 0.41 µM, 8.08 ± 2.25 µM and 15.7 ± 2.98 µM.
Regarding `COc1cccc(/C=C/C(=O)NNC(=O)/C=C/c2cccc(OC)c2)c1` [I26], the IC50 with A549 cancer cells (Homo sapiens, A549) worked out at 11 ± 1.72 µM; with HepG2 cancer cells (setting [1]) it was 14.5 ± 2.56 µM; in the experiment on PC-3 cancer cells (Homo sapiens), 21 ± 2.32 µM.
For the molecule “(E)-3-(3-methoxyphenyl)-N'-((E)-3-(3-methoxyphenyl)acryloyl)acrylohydrazide [I25]”, the values for the IC50 in the experiment with A549 cancer cells, in the experiment with HepG2 cancer cells (MTT assay after 48 h) and with PC-3 cancer cells were 144 ± 8.95 µM, 80 ± 4.04 µM and 142 ± 6.79 µM, respectively.
